# Source: patent publication US10626148B2, “Glycopeptides conjugates and uses thereof” (priority 2015, dated 2020)
# How the values were obtained:
# [1] = tested on: Methicillin-resistant S. aureus (ATCC 33591); assay: MIC, micro-dilution broth, MRSA; format: cell-based; conditions: Staphylococcus aureus
# Experimental: (§1) Test compounds were assayed in a micro-dilution broth format. Stock solutions were made by serially diluting the compounds using autoclaved millipore water or broth media. The antibacterial activity of the compounds was determined against gram positive bactreia like methicillin-resistant S. aureus (MRSA), vancomycin-intermediate-resistant S. aureus (VISA), vancomycin-sensitive E. faecium (VSE), vancomycin-resistant E. faecalis and vancomycin-resistant E. faecium (VRE). Antibacterial activity of dipicolyl-vancomycin conjugate conjugate (4) in combination with meropemem was determined against gram-negative bacteria such as K. pneumoniae ATCC BAA2146, clinical isolates K. pneumoniae R3949, K. pneumoniae R3934, E. coli R3336 and A. baumanii R676. Bacteria, to be tested, were grown for about 10 h in the suitable media, MRSA, VISA and gram negative bacteria were grown in Yeast-dextrose broth (about 1 g of beef extract, about 2 g of yeast extract, about 5 g of peptone and about 5 g of NaCl in about 1000 mL of sterile distilled water (pH-7)). For solid media, about 5% agar was used along with above mentioned composition. VSE and VRE were cultured in Brain Heart Infusion broth (Himedia). The bacterial samples were freeze dried and stored at −80° C. About 5 μL of these stocks were added to about 3 mL of the nutrient broth or Brain Heart Infusion broth and the culture was grown for about 6 h at about 37° C. prior to the experiments. This 6 h grown culture gives about 10^9 cfu/mL and this was determined by spread plating method. The 6 h grown culture was diluted to give effective cell concentration of about 10^5 cfu/mL which was then used for determining MIC. Compounds were serially diluted, in sterile water (2-fold dilution is employed) in a way that the working concentration was about 10 μM for MRSA, and VSE while for VRE, VISA and gram negative bacteria; it was about 100 μM. About 50 μL of these serial dilutions were added to the wells of 96 well plate followed by the addition of about 150 μL of bacterial solution. The plates were then incubated at about 37° C., 150 rpm in the incubator and O.D at 620 nm was recorded at an interval of about 24 h using TECAN (Infinite series, M200 pro) Plate Reader. Each concentration had triplicate values and the whole experiment was done at least twice and the MIC value was determined by taking the average of triplicate O.D. values for each concentration and plotting it against concentration. The data was then subjected to sigmoidal fitting.
# [2] = tested on: Vancomycin intermediate resistant S. aureus; assay: MIC, micro-dilution broth, VISA; format: cell-based; conditions: Staphylococcus aureus
# Experimental: as §1
# [3] = tested on: Vancomycin-sensitive E. faecium (ATCC 19634); assay: MIC, micro-dilution broth, VSEm; format: cell-based; conditions: Enterococcus faecium, ATCC19634
# Experimental: as §1
# [4] = tested on: Vancomycin-resistant E. faecalis (VanA, ATCC 51575); assay: MIC, micro-dilution broth, VREs; format: cell-based; conditions: Enterococcus faecalis, ATCC51575
# Experimental: as §1
# [5] = tested on: meropenem-resistant NDM-1 bacteria; assay: Combination with meropenem against NDM-1 gram negative bacteria; format: cell-based; conditions: in combination with meropenem
# Experimental: Test compounds were assayed in a micro-dilution broth format. Stock solutions were made by serially diluting the compounds using autoclaved millipore water or broth media. The antibacterial activity of the compounds was determined against gram positive bactreia like methicillin-resistant S. aureus (MRSA), vancomycin-intermediate-resistant S. aureus (VISA), vancomycin-sensitive E. faecium (VSE), vancomycin-resistant E. faecalis and vancomycin-resistant E. faecium (VRE). Antibacterial activity of dipicolyl-vancomycin conjugate conjugate (4) in combination with meropemem was determined against gram-negative bacteria such as K. pneumoniae ATCC BAA2146, clinical isolates K. pneumoniae R3949, K. pneumoniae R3934, E. coli R3336 and A. baumanii R676. Bacteria, to be tested, were grown for about 10 h in the suitable media, MRSA, VISA and gram negative bacteria were grown in Yeast-dextrose broth (about 1 g of beef extract, about 2 g of yeast extract, about 5 g of peptone and about 5 g of NaCl in about 1000 mL of sterile distilled water (pH-7)). […] This 6 h grown culture gives about 10^9 cfu/mL and this was determined by spread plating method. […] The plates were then incubated at about 37° C., 150 rpm in the incubator and O.D at 620 nm was recorded at an interval of about 24 h using TECAN (Infinite series, M200 pro) Plate Reader. Each concentration had triplicate values and the whole experiment was done at least twice and the MIC value was determined by taking the average of triplicate O.D. values for each concentration and plotting it against concentration. […]
# Then, the antibacterial activities of Dipicolyl-vancomycin conjugate (4) is checked in combination with meropenem against New-Delhi β-lactamase producing gram negative bacteria such as K. pneumoniae BAA2146, clinical isolates K. pneumoniae R3949, K. pneumoniae R3934, E. coli R3336 and A. baumanii R676. […] Further we have also evaluated the antibacterial activity of dipicolyl-vancomycin conjugate (4) in presence of zinc sulphate, wherein it forms dipicolyl-vancomycin-zinc complex (5).
# [6] = tested on: meropenem-resistant NDM-1 K. pneumoniae R3934; assay: Sepsis infection model in mice; format: in vivo; conditions: CD-1 mice, i.p., 1 h and 24 h post-infection
# Experimental: Sepsis infection model: About six-week-old, female CD-1 mice (weight, ˜19-24 g) were used for the experiments. Mice were infected intraperitoneally (i.p.) with a dose of ˜10^6 CFU/mouse of meropenem-resistant NDM-1 K. pneumoniae R3934. Then, mice were treated twice at 1 h and 24 h post-infection with a specified i.p. dose of either saline, meropenem (10 mg/kg), compound 4 (10 mg/kg), or a combination of compound 4 (10 mg/kg) and meropenem (10 mg/kg). Here, colistin (5 mg/kg) was used as a positive control. Mice were euthanized after 48 h post-infection and then liver, spleen, kidney and lungs were collected to find out the bacterial density in these organs. Organs were placed into 10 ml sterile saline on ice, and then homogenized. The dilutions of the homogenate were plated onto agar plates, which were incubated for 24 h at 37° C. The bacterial titer was expressed as log10 CFU/g of organ weight.
# VRE = assay: Cell wall biosynthesis inhibition, UDPMurNAc-pp accumulation; format: cell-based
# Experimental: In order to investigate whether the new installed properties of vancomycin derivative on inhibition of cell wall (peptidoglycan) biosynthesis against VRE, the accumulation of UDP-linked peptidoglycan precursor, UDP-N-acetyl-muramyl-pentadepsipeptide (UDPMurNAc-pp) was determined after treating the bacteria (VRE) with test compounds. Analysis of the cytoplasmic peptidoglycan nucleotide precursor pool was examined using VRE cells grown in 25 mL MHB. Cells were grown to an A600 nm (OD600) of 0.6 and incubated with 130 μg/mL of chloramphenicol for 15 min. Then, test compounds vancomycin (5 μM), compound 4 and physical mixture of compound 4 with zinc sulphate (5 μM) were added and incubated for another 60 min. Cells were collected and washed with sterile water to remove the antimicrobial agents and then extracted with boiling water. The cell extract was then centrifuged and the supernatant lyophilized. Then, the lyophilized powder was dissolved in 2 mL of water and pH was adjusted to 2.0 with 20% phosphoric acid. Now, the UDP-linked cell wall precursors in the solution were analyzed by RP-HPLC monitoring the UV absorbance peak at 260 nm wavelength and confirmed by HR-MS mass spectrometry.
# MRSA = assay: Resistance development study, serial passages; format: cell-based, S. aureus; conditions: passaged at MIC/2
# Experimental: MIC values of the compound 4 and vancomycin were determined against MRSA as described above. For the next day MIC experiment, the bacterial dilution was made by using the bacteria from sub-MIC concentration of the compounds (at MIC/2). Then, the concentration of this bacteria was adjusted to ˜10^5 CFU/mL based on OD600 and subjected to next MIC assay. After a 24 h incubation period, again bacterial dilution was prepared by using the bacterial suspension from sub-MIC concentration of the compound (at MIC/2) and assayed for another MIC experiment. The process was repeated for 25 passages, and the fold increase in MIC was determined. […] Thus bacteria were unable in acquiring resistance to this compound and this emphasizes the longevity of such compounds in clinics.
smiles,measurement,setting,value
"CN[C@H](CC(C)C)C(=O)N[C@H]1C(=O)N[C@@H](CC(N)=O)C(=O)N[C@H]2C(=O)N[C@H]3C(=O)N[C@H](C(=O)N[C@H](C(=O)NCCCCCCN(Cc4ccccn4)Cc4ccccn4)c4cc(O)cc(O)c4-c4cc3ccc4O)[C@H](O)c3ccc(c(Cl)c3)Oc3cc2cc(c3O[C@H]2OC(CO)[C@H](O)C(O)C2O[C@H]2CC(C)(N)[C@H](O)C(C)O2)Oc2ccc(cc2Cl)[C@H]1O (stereo partly shown) [Compound 4, Dipicolyl-vancomycin conjugate]",MIC,[1],0.6 µM
same,MIC,[2],0.4 µM
same,MIC,[3],0.3 µM
same,MIC,[4],2.5 µM
same,resensitization of meropenem-resistant NDM-1 bacteria to meropenem (synergistic activity),[5],able to resensitize
same,"in-vivo antibacterial activity, bacterial titer in organs",[6]; 10 mg/kg alone,did not show any activity
same,"in-vivo antibacterial activity, bacterial titer in organs",[6]; compound 4 (10 mg/kg) in combination with meropenem (10 mg/kg),excellent antibacterial activity
same,"cell wall biosynthesis inhibition (accumulation of UDPMurNAc-pp, peak at 260 nm)",VRE; 60 min,greater cell wall biosynthesis inhibition compared to vancomycin
same,cell wall biosynthesis inhibition (accumulation of UDPMurNAc-pp),VRE; in presence of Zn2+ (zinc sulphate 5 μM),enhanced cell wall biosynthesis inhibition
same,fold increase in MIC after 25 serial passages,MRSA,remained the same
